In article PMC7396997, “Discovery of 4-Anilinoquinolinylchalcone Derivatives as Potential NRF2 Activators” (Molecules, 2020):
Values joined by “and” are separate entries in the source; they are usually repeats but may differ in a detail not shown here. Equal values may be shown once. Where a name gives a salt, the structure may show the parent alone. Read-outs that look alike come from different tables or passages of the source.

Legend:
NRF2 = assay: ARE-driven luciferase reporter assay (NRF2 activity) in HaCaT/ARE stable cells; type: cell-based, human; conditions: for activity at 10 µM: HaCaT, read-out: % of Relative NRF2 Activity in HaCaT Cell; for activity at 10 µM / % of Relative NRF2 Activity in HaCaT Cell: 24 h (b12; method b59 says 18 h), luciferase normalised to cell viability, DMSO control = 100%, 10 μM; for Emax of NRF2 promoter activity / EC50: HaCaT/ARE cells, 18 h, dose-response; for EC50: read-out: EC50 of NRF2 promoter activity
Description: In this study, we used a stable ARE-driven reporter system to screen the potential NRF2 activators.

HaCaT/ARE cells = assay: Cell viability (resazurin) in the reporter screen; conditions: 10 μM; in % (unit assumed)
Protocol: Immortalized human keratinocytes HaCaT were cultured in the Dulbecco’s modified Eagle’s medium (DMEM; Gibco BRL, Grand Island, NY, USA) with 10% heat-inactivated fetal bovine serum (HyClone, Logan, UT, USA), penicillin (100 U/mL), and streptomycin (100 μg/mL) in a humidified incubator with 5% CO2. HaCaT/ARE stable cells were grown in DMEM supplemented with 100 μg/mL of hygromycin.
HaCaT/ARE stable cells were seeded (1 × 10^4 cells/well) in a 96 well plate, then were treated with indicated concentrations of compounds for 18 h. At the assay time point, resazurin (Cayman Chemical, Ann Arbor, MI, USA) was added to a final concentration of 0.1 mg/mL and further incubated for 4 h at 37 °C. Fluorescence of the reduced resazurin (ex/em: 530 nm/590 nm) was measured from the culture supernatant by using a Synergy HT Multi-Mode Reader (BioTek, Winooski, VT, USA) to determine cell viability. The cells were then harvested for luciferase activity measurements according to the manufacturer’s protocol (Promega Corporation, Madison, WI, USA). Relative luciferase activity was calculated by normalizing luciferase activity to cell viability, and DMSO solvent control was used as 100% activity.

[1] = Cytotoxicity, 72 h resazurin cell viability assay; type: cell-based, human; conditions: human
Protocol: (§1) Cells were seeded in a 96-well plate contained 100 μL culture medium in triplicate and treated with several compounds for 72 h. At the assay time point, resazurin (Cayman Chemical) was added and further incubated for 4 h at 37 °C. Fluorescence of the reduced resazurin was measured as described previously.
(§2) Figure 3 The cytotoxicity of 12b, 13b, and 14b in HaCaT cells. HaCaT cells were treated with indicated concentrations of these three compounds for 72 h. Cell viability was determined by a resazurin assay as described in the Materials and Methods section. Data presented as mean ± SD from three independent experiments.

GCLM and NQO1 = test system: GCLM and NQO1; design: method as in PMID 21539383; conditions: small intestine; cited from earlier work
HaCaT cells = assay: Cytotoxicity, 72 h resazurin cell viability assay; type: cell-based, human
Protocol: as §1, §2

Row | Compound | Cell Viability (HaCaT/ARE cells) | % of Relative NRF2 Activity in HaCaT Cell (NRF2) | also measured
1 | O=C(/C=C/c1cc(Nc2ccccc2)c2ccccc2n1)c1ccccc1 (as salt: hydrochloride) [12a, (E)-1-phenyl-3-[4-(phenylamino)quinolin-2-yl]prop-2-en-1-one] | – | – | melting point: 238.5 to 239.2 °C
2 | CC(=O)c1ccc(Nc2cc(/C=C/C(=O)c3ccccc3)nc3ccccc23)cc1 (as salt: hydrochloride) [12b, (E)-3-{4-[(4-acetylphenyl)amino]quinolin-2-yl}-1-phenylprop-2-en-1-one] | – | – | melting point: 248.7 to 249.2 °C
3 | O=C(O)c1ccc(Nc2cc(/C=C/C(=O)c3ccccc3)nc3ccccc23)cc1 (as salt: hydrochloride) [12c, (E)-4-{[2-(3-oxo-3-phenylprop-1-en-1-yl)quinolin-4-yl]amino}benzoic acid] | – | – | melting point: 298.3 to 298.9 °C
4 | C/C(=N\OCCN)c1ccc(Nc2cc(/C=C/C(=O)c3ccccc3)nc3ccccc23)cc1 (as salt: hydrochloride) [12d] | – | – | melting point: 200.2 to 201.5 °C
5 | C/C(=N\OCCCN(C)C)c1ccc(Nc2cc(/C=C/C(=O)c3ccccc3)nc3ccccc23)cc1 (as salt: hydrochloride) [12e, (E)-3-{4-{{4-{(E)-1-{[3-(dimethylamino)propoxy]imino}ethyl}phenyl}-amino}quinolin-2-yl}-1-phenylprop-2-en-1-one] | – | – | melting point: 155.6 to 156.6 °C
6 | CCN(CC)CCOC(=O)c1ccc(Nc2cc(/C=C/C(=O)c3ccccc3)nc3ccccc23)cc1 (as salt: hydrochloride) [12h, 2-(Diethylamino)ethyl (E)-4-{[2-(3-oxo-3-phenylprop-1-en-1-yl)quinolin-4-yl]amino}benzoate] | – | – | melting point: 158.7 to 159.3 °C
7 | CCN(CC)CCOC(=O)c1ccc(Nc2cc(/C=C/C(=O)c3ccc(F)cc3)nc3ccccc23)cc1 (as salt: hydrochloride) [13h, 2-(Diethylamino)ethyl (E)-4-{{2-[3-(4-fluorophenyl)-3-oxoprop-1-en-1-yl]-quinolin-4-yl}amino}benzoate] | – | – | melting point: 135.4 to 135.8 °C
8 | CCN(CC)CCOC(=O)c1ccc(Nc2cc(/C=C/C(=O)c3ccc(OC)cc3)nc3ccccc23)cc1 (as salt: hydrochloride) [14h, 2-(Diethylamino)ethyl (E)-4-{{2-[3-(4-methoxyphenyl)-3-oxoprop-1-en-1-yl]-quinolin-4-yl}amino}benzoate] | – | – | melting point: 158.7 to 159.3 °C
9 | O=C(/C=C/c1cc(Nc2ccccc2)c2ccccc2n1)c1ccccc1 [12a, (E)-1-phenyl-3-[4-(phenylamino)quinolin-2-yl]prop-2-en-1-one] | 67.65 ± 0.6 | – | activity at 10 µM (NRF2; Homo sapiens): 7%
10 | CC(=O)c1ccc(Nc2cc(/C=C/C(=O)c3ccccc3)nc3ccccc23)cc1 [12b, (E)-3-{4-[(4-acetylphenyl)amino]quinolin-2-yl}-1-phenylprop-2-en-1-one] | 71.2 ± 1.8 | – | Emax of NRF2 promoter activity (NRF2): 692.8±53.3%; activity at 10 µM (NRF2; Homo sapiens): 394%; EC50 (NRF2; Homo sapiens): 0.85 ± 0.04 µM; CC50 at 72 h [1]: 9.3 µM
11 | O=C(O)c1ccc(Nc2cc(/C=C/C(=O)c3ccccc3)nc3ccccc23)cc1 [12c, (E)-4-{[2-(3-oxo-3-phenylprop-1-en-1-yl)quinolin-4-yl]amino}benzoic acid] | 81.4 ± 0.8 | – | activity at 10 µM (NRF2; Homo sapiens): 75%
12 | C/C(=N\OCCN)c1ccc(Nc2cc(/C=C/C(=O)c3ccccc3)nc3ccccc23)cc1 [12d] | 68.4 ± 1.3 | – | activity at 10 µM (NRF2; Homo sapiens): 287%
13 | C/C(=N\OCCCN(C)C)c1ccc(Nc2cc(/C=C/C(=O)c3ccccc3)nc3ccccc23)cc1 [12e, (E)-3-{4-{{4-{(E)-1-{[3-(dimethylamino)propoxy]imino}ethyl}phenyl}-amino}quinolin-2-yl}-1-phenylprop-2-en-1-one] | 69.5 ± 0.9 | – | activity at 10 µM (NRF2; Homo sapiens): 95%
14 | CCN(CC)CCNC(=O)c1ccc(Nc2cc(/C=C/C(=O)c3ccccc3)nc3ccccc23)cc1 [12f] | 78.8 ± 0.1 | – | activity at 10 µM (NRF2; Homo sapiens): 26%
15 | CCN(CC)CCOC(=O)c1ccc(Nc2cc(/C=C/C(=O)c3ccccc3)nc3ccccc23)cc1 [12h, 2-(Diethylamino)ethyl (E)-4-{[2-(3-oxo-3-phenylprop-1-en-1-yl)quinolin-4-yl]amino}benzoate] | 71.1 ± 1.2 | – | –
16 | CCN(CC)CCNC(=O)c1ccc(Nc2cc(/C=C/C(=O)c3ccc(OC)cc3)nc3ccccc23)cc1 [13f] | 88.7 ± 1.9 | – | –
17 | CCN(CC)CCOC(=O)c1ccc(Nc2cc(/C=C/C(=O)c3ccc(F)cc3)nc3ccccc23)cc1 [13h, 2-(Diethylamino)ethyl (E)-4-{{2-[3-(4-fluorophenyl)-3-oxoprop-1-en-1-yl]-quinolin-4-yl}amino}benzoate] | 82.7 ± 1.7 | – | –

Row | Compound | Cell Viability (HaCaT/ARE cells) | % of Relative NRF2 Activity in HaCaT Cell (NRF2) | also measured
18 | C/C(=N\OCCCN(C)C)c1ccc(Nc2cc(/C=C/C(=O)c3ccc(F)cc3)nc3ccccc23)cc1 [14e] | 76.7 ± 0.2 | – | activity at 10 µM (NRF2; Homo sapiens): 193%
19 | CCN(CC)CCNC(=O)c1ccc(Nc2cc(/C=C/C(=O)c3ccc(F)cc3)nc3ccccc23)cc1 [14f] | 66.3 ± 2.6 | 6.0 ± 0.3% | activity at 10 µM (NRF2; Homo sapiens): 6%
20 | CCN(CC)CCOC(=O)c1ccc(Nc2cc(/C=C/C(=O)c3ccc(OC)cc3)nc3ccccc23)cc1 [14h, 2-(Diethylamino)ethyl (E)-4-{{2-[3-(4-methoxyphenyl)-3-oxoprop-1-en-1-yl]-quinolin-4-yl}amino}benzoate] | 76.8 ± 0.2 | – | activity at 10 µM (NRF2; Homo sapiens): 127%
21 | COc1ccccc1C(=O)/C=C/c1ccccc1C(F)(F)F [Compound 1, (E)-1-(2-methoxyphenyl)-3-[2-(trifluoromethyl)phenyl]prop-2-en-1-one] | – | – | expression of GCLM compared to sulforaphane (GCLM and NQO1): 3 fold; expression of NQO1 compared to sulforaphane (GCLM and NQO1): 5 fold
22 | COc1ccc(/C=C/C(=O)c2c(O)cc(OC)cc2OC)cc1 [Flavokawain A, reference compound] | 95.9 ± 1.6 | – | –
23 | CC(C)(C)c1cc(O)ccc1O [t-BHQ, tert-Butyl hydroquinone, reference compound] | 97.7 ± 1.5 | 1880% and 1880.4 ± 97.2% | –
24 | (E)-1-(4-Fluorophenyl)-3-[4-(phenylamino)quinolin-2-yl]prop-2-en-1-one [13a] | – | 6% and 5.5 ± 0.17% | –
25 | (E)-1-(4-Methoxyphenyl)-3-[4-(phenylamino)quinolin-2-yl]prop-2-en-1-one [14a] | – | 7% and 7.1 ± 1.3% | –
26 | (E)-3-{4-[(4-Acetylphenyl)amino]quinolin-2-yl}-1-(4-methoxyphenyl)prop-2-en-1-one [14b] | – | 937% and 936.5 ± 39.8% | Emax of NRF2 promoter activity (NRF2): 748.5±73.6%; EC50 (NRF2): 1.58 ± 0.15 µM; CC50 (HaCaT cells): 28.4 µM
27 | (E)-3-{4-{{4-{(E)-1-[(2-Aminoethoxy)imino]ethyl}phenyl}amino}quinolin-2-yl}-1-(4-fluorophenyl)prop-2-en-1-one [13d] | – | 1697% and 1697.3 ± 39.8% | –
28 | (E)-3-{4-{{4-{(E)-1-[(2-Aminoethoxy)imino]ethyl}phenyl}amino}quinolin-2-yl}-1-(4-methoxyphenyl)prop-2-en-1-one [14d] | – | 229% and 229.4 ± 68.4% | –
29 | (E)-3-{4-{{4-{(E)-1-{[2-(Dimethylamino)ethoxy]imino}ethyl}phenyl}-amino}quinolin-2-yl}-1-(4-fluorophenyl)prop-2-en-1-one [13e] | – | 2145% and 2144.7 ± 168.6% | –
30 | (E)-4-({2-[3-(4-Fluorophenyl)-3-oxoprop-1-en-1-yl]quinolin-4-yl}amino)-benzoic acid [13c] | 74.5 ± 1.1 | 147% and 147.3 ± 51.7% | –
31 | (E)-4-{{2-[3-(4-Methoxyphenyl)-3-oxoprop-1-en-1-yl]quinolin-4-yl}-amino}benzoic acid [14c] | 70.8 ± 1.9 | 212% and 212.6 ± 93.6% | –
32 | (E)-N-[2-(Diethylamino)ethyl]-4-{{2-[3-(4-fluorophenyl)-3-oxoprop-1-en-1-yl]quinolin-4-yl}amino}benzamide [13g] | 78.7 ± 0.5 | 5% and 5.1 ± 0.42% | –
33 | (E)-N-[2-(Diethylamino)ethyl]-4-{{2-[3-(4-methoxyphenyl)-3-oxoprop-1-en-1-yl]quinolin-4-yl}amino}benzamide [14g] | 77.6 ± 1.5 | 5% and 5.1 ± 0.18% | –
